Laboratory results as given in patent US6723716B1, “7-acylamino-3-heteroarylthio-3-cephem carboxylic acid antibiotics and prodrugs thereof” (Essential Therapeutics, Inc., priority 1999, dated 2004).
Where two headings read alike, the source gives them in different places.

Key:
[1] = Pharmacokinetic evaluation in rat (clearance); format: in vivo; conditions: male, Sprague-Dawley (SD), serum, iv, read-out: Pharmacokinetics Clearance (converted)
Excerpt: Four male SD rats with femoral and jugular vein catheters were obtained from Hilltop Lab Animals, Inc. (Scottdale, Pa.). The catheters in the femoral and jugular veins were filled with 10 units/mL heparin in saline, and kept patent by changing the solution daily. The animals were quarantined for a minimum of two days prior to use, and were maintained on a 12-h light:dark schedule with constant access to food and water before and during the study. On the day of dosing, the animals weighed […] (mean±s.d.).
A 4 mg/mL (active component) dosing solution of mesylate salt of compound 17 was prepared in sterile saline for injection. […] Blood samples (0.2 mL aliquots) were collected from the jugular vein catheter 5, 15, 20, 25, 30, and 45 min, and 1, 2, 3, and 4 h after the start of the infusion. The blood was centrifuged for 10 min and the serum was stored ≦−70° C. until analysis by HPLC.
The plasma concentrations from individual animals were fit to a two-compartment model with zero order input and first-order elimination from the central compartment using weighted nonlinear regression (WinNonlin, Pharsight, Palo Alto, Calif.). Pharmacokinetic parameters were calculated from the fitted parameters using standard equations (Gibaldi M, Perrier D. 1982. Pharmacokinetics, 2nd ed., Marcel Dekker Inc., New York.).

human serum proteins = assay: Serum binding determination by ultrafiltration/HPLC; format: in vitro ADME; conditions: by HPLC
Protocol: The more accurate measurement of binding of selected cephalosporin compounds was performed using HPLC as described below.
1. Serum is placed in a shaking water bath preheated to 37±2° C. for 5 to 10 minutes to heat serum to 37° C. Serum pH is measured and recorded, while serum is 37° C. using pH paper. Measurements are taken twice, 3 minutes apart. If the pH is not 7.4±0.4 then the pH is adjusted by blowing 5% CO2/95% O2 over the serum. After blowing for several minutes, serum is heated to 37° C. and measurements are taken twice, 3 minutes apart using pH paper to determine the pH. Store at 4° C. The serum is stable for 7 days. Always check the pH before each use.
2. Before any centrifugation, the centrifuge temperature must be adjusted to 25±2° C. Preheat the centrifuge by spinning for 45 minutes at the same speed to be used in the assay (1900 g) with two tubes of water in the rotor and the temperature set to 25° C. When the centrifuge stops immediately check the temperature of the tubes of water with a calibrated thermometer. The temperature of the tubes of water must be 25±2° C. […] Continue spinning and measuring the temperature and adjusting the setting until the temperature is 25±2° C.
3. Prepare blank ultrafiltrate by pipetting blank pH 7.4 serum into an Amicon Centrifree Micropartition devices, centrifuge: fixed angle rotor, 1900 g, 25° C. for 20 minutes. Heat ultrafiltrate in a shaking water bath preheated to 37° C. Measure ultrafiltrate pH and adjust to the pH of the serum (7.4±0.2).
4. Pipette 190 ul of blank ultrafiltrate into a set of labeled 1.7 mL polypropylene microfuge tubes for 3 of each level. Pipette 10 μL of the appropriate standard stock 50, 200, 1000 μg/mL to make standards 2.5, 10, and 50 μg/mL respectively. Vortex each tube well. One set of the standard samples are mixed 1:1 with 0.2 M acetic acid and injected onto the HPLC (MSTD). These samples are the membrane standards and will be used to compare to the other standards. Pipette 190 ul of ultrafiltrate and spike with 10 ul of whatever solution (e.g. water) the standards are prepared in to make the zero standard.
5. Pipette 475 μL of blank heated pH 7.4 serum into a set of labeled 1.7 mL polypropylene microfuge tubes for 2 of each (Serum A and Serum B). Pipette 25 μL of the 1000 μg/mL standard stock into each tube, vortex each tube well to make serum standard 50 μg/mL. Remove 100 μL of serum and deproteinate with 200 μL 4% TCA while vortexing to make serum time 0 (serum 50, T0). Place serum tubes in a shaking water bath at 37° C. for 10 minutes. Pipet 100 μL of serum out and deproteinate with 200 μL 4% TCA, to make serum time 10 min (serum 50, T10). Pipet 200 ul serum standard 50 μg/mL into an ultrafiltration device, which is not treated with TCA, to determine free drug in samples (Rat Serum 50).
6. Transfer serum and standard samples to labeled Amicon Centrifree Micropartition filters, and centrifuge: 1900 g, 25° C. for 10 minutes. The extracted serum samples (T0 and T10) are spun down and supernatant is loaded into HPLC vials.
7. 100 μL of ultrafiltrate sample and 100 μL of 0.2 M acetic acid were mixed together to stabilize the compound in ultrafiltrate.
8. Transfer entire stabilized ultrafiltrate solution to a labeled autoinjector HPLC vial cap with Teflon septa, and inject on HPLC.
Peak height or area is used in a weighted linear regression.

[2] = In vitro stability of compounds in rat serum; format: in vitro ADME; conditions: for stability of compounds in rat serum: Table 2 data; for Stability in rat serum (% loss): after 60 min exposure to rat serum, 37° C., HPLC
Protocol: In general, compounds from the class of 7-acylamino-3-heteroarylthio-3-cephem carboxylic acids have higher chemical reactivity and lower stability towards chemical or enzymatic decomposition than most typical cephalosporins. […] Results shown in Table 2 represent percentage loss of the initial amount of cephalosporin compound upon 60 min incubation in rat serum.
Procedure for measuring degree of degradation of cephalosporin compounds in rat serum was as follows:
Fresh control rat serum (heparinized and stored frozen) is preincubated at 37° C. for 15 min in a shaking water bath. pH is measured using test strips. 25 μL of a 2 mg/mL solution cephalosporin compound (in water) of is then added to each matrix to make 1000 μL. Solutions were incubated at 37° C. 100 ul of solution was taken out at time=0, 15, 30, and 60 min post dose and added 200 μL 4% trichloroacetic acid, vortexed, and centrifuged for 10 min at 14,000 rpm in an Eppendorf microcentrifuge. 25 μL of each supernatant was injected onto HPLC. Experiment was repeated using 25 μL of a 0.2 mg/mL cephalosporin compound. Degradation is measured as the percentage of HPLC peak area at time t relative to peak area at time 0.
HPLC conditions: Beckman Ultrasphere C18 column. 5 u. 4.6 mm×25 cm. 1 mL/min of 95% 0.1 M ammonium acetate, pH 6, 5% ACN going to 75% buffer/organic over 20 min. UV monitored at 254 and 280 nm.

NCCSCc1nc(N)sc1SC1=C(C(=O)O)N2C(=O)[C@@H](NC(=O)/C(=N\O)c3nc(N)sc3Cl)[C@H]2SC1 [Cmpd 3, (7R)-7-[(Z)-2-(2-amino-5-chlorothiazol-4-yl)-2-(hydroxyimino)acetamido]-3-[4-(2-aminoethylthiomethyl)-2-amino-1,3-thiazol-5-ylthio]-3-cephem-4-carboxylic acid]
clearance ([1]; dose 27.5 mg/kg): 0.95 L/h/kg
Serum Binding human (% of compound bound to serum) (human serum proteins): 88%
stability of compounds in rat serum [2]: improved stability
Stability in rat serum (% loss) [2]: 3%

NCCSCc1nc(SCCN)sc1SC1=C(C(=O)O)N2C(=O)[C@@H](NC(=O)/C(=N\O)c3nc(N)sc3Cl)[C@H]2SC1 [Cmpd 11, (7R)-7-[(Z)-2-(2-amino-5-chlorothiazol-4-yl)-2-(hydroxyimino)acetamido]-3-[4-(2-aminoethylthiomethyl)-2-aminoethylthio-1,3-thiazol-5-ylthio]-3-cephem-4-carboxylic acid]
Serum Binding human (% of compound bound to serum) (human serum proteins): 83%
Stability in rat serum (% loss) [2]: 47%

NCCSCc1ncccc1SC1=C(C(=O)O)N2C(=O)[C@@H](NC(=O)/C(=N\O)c3nc(N)sc3Cl)[C@H]2SC1 [Cmpd 13, (7R)-7-[(Z)-2-(2-amino-5-chlorothiazol-4-yl)-2-(hydroxyimino)acetamido]-3-[2-(2-aminoethylthiomethyl)pyrid-3-ylthio]-3-cephem-4-carboxylic acid]
clearance ([1]; dose 20.0 mg/kg): 0.79 L/h/kg
Serum Binding human (% of compound bound to serum) (human serum proteins): 90%
stability of compounds in rat serum [2]: improved stability
Stability in rat serum (% loss) [2]: 9%

N=C(N)NCCSCc1ncccc1SC1=C(C(=O)O)N2C(=O)[C@@H](NC(=O)/C(=N\O)c3nsc(N)n3)[C@H]2SC1 [Cmpd 14, (7R)-7-[(Z)-2-(5-amino-1,2,4-thiadiazol-3-yl)-2-(hydroxyimino)acetamido]-3-[2-(2-guanidinoethylthiomethyl)pyrid-3-ylthio]-3-cephem-4-carboxylic acid]
Serum Binding human (% of compound bound to serum) (human serum proteins): 60%
stability of compounds in rat serum [2]: improved stability
Stability in rat serum (% loss) [2]: 10%

NCCSCc1ncccc1SC1=C(C(=O)O)N2C(=O)[C@@H](NC(=O)/C(=N\O)c3nsc(N)n3)[C@H]2SC1 [Cmpd 17, (7R)-7-[(Z)-2-(5-amino-1,2,4-thiadiazol-3-yl)-2-(hydroxyimino)acetamido]-3-[2-(2-aminoethylthiomethyl)pyrid-3-ylthio]-3-cephem-4-carboxylic acid]
clearance ([1]; dose 16.4 mg/kg, mesylate salt, 20 min i.v. infusion): 0.5 L/h/kg
Serum Binding human (% of compound bound to serum) (human serum proteins): 66%
stability of compounds in rat serum [2]: improved stability
Stability in rat serum (% loss) [2]: 2%

NCCSCc1cnccc1SC1=C(C(=O)O)N2C(=O)[C@@H](NC(=O)/C(=N\O)c3nsc(N)n3)[C@H]2SC1 [Cmpd 18, (7R)-7-[(Z)-2-(5-amino-1,2,4-thiadiazol-3-yl)-2-(hydroxyimino)acetamido]-3-[3-(2-aminoethylthiomethyl)pyrid-4-ylthio]-3-cephem-4-carboxylic acid]
clearance ([1]; dose 20.0 mg/kg): 2.17 L/h/kg
Serum Binding human (% of compound bound to serum) (human serum proteins): 66%
Stability in rat serum (% loss) [2]: 23%

NCCSCc1cnccc1SC1=C(C(=O)O)N2C(=O)C(NC(=O)/C(=N\O)c3csc(N)n3)C2SC1 (stereo not shown) [Cmpd 19]
clearance ([1]; dose 42.5 mg/kg): 1.25 L/h/kg
Serum Binding human (% of compound bound to serum) (human serum proteins): 68%
Stability in rat serum (% loss) [2]: 26%

NCCSCc1cnccc1SC1=C(C(=O)O)N2C(=O)[C@@H](NC(=O)/C(=N\O)c3nc(N)sc3Cl)[C@H]2SC1 [Cmpd 20, (7R)-7-[(Z)-2-(2-amino-5-chlorothiazol-4-yl)-2-(hydroxyimino)acetamido]-3-[3-(2-aminoethylthiomethyl)pyrid-4-ylthio]-3-cephem-4-carboxylic acid]
clearance ([1]; dose 20.0 mg/kg): 1.59 L/h/kg
Serum Binding human (% of compound bound to serum) (human serum proteins): 84%
Stability in rat serum (% loss) [2]: 70%

NCCSCc1ccncc1SC1=C(C(=O)O)N2C(=O)[C@@H](NC(=O)/C(=N\O)c3nc(N)sc3Cl)[C@H]2SC1 [Cmpd 21, (7R)-7-[(Z)-2-(2-amino-5-chlorothiazol-4-yl)-2-(hydroxyimino)acetamido]-3-[4-(2-aminoethylthiomethyl)pyrid-3-ylthio]-3-cephem-4-carboxylic acid]
clearance ([1]; dose 20.0 mg/kg): 0.73 L/h/kg
Serum Binding human (% of compound bound to serum) (human serum proteins): 90%
stability of compounds in rat serum [2]: improved stability
Stability in rat serum (% loss) [2]: 3%

NCCSCc1ncsc1SC1=C(C(=O)O)N2C(=O)[C@@H](NC(=O)/C(=N\O)c3cccc(N)n3)[C@H]2SC1 [Cmpd 23, (7R)-7-[(Z)-2-(2-aminopyrid-6-yl)-2-(hydroxyimino)acetamido]-3-[4-(2-aminoethylthiomethyl)-1,3-thiazol-5-ylthio]-3-cephem-4-carboxylic acid]
clearance ([1]; dose 20.0 mg/kg): 0.81 L/h/kg
Serum Binding human (% of compound bound to serum) (human serum proteins): 94%
stability of compounds in rat serum [2]: improved stability
Stability in rat serum (% loss) [2]: 19%

NCCSCc1cnccc1SC1=C(C(=O)O)N2C(=O)[C@@H](NC(=O)/C(=N\O)c3cccc(N)n3)[C@H]2SC1 [Cmpd 24, (7R)-7-[(Z)-2-(2-aminopyrid-6-yl)-2-(hydroxyimino)acetamido]-3-[3-(2-aminoethylthiomethyl)pyrid-4-ylthio]-3-cephem-4-carboxylic acid]
clearance ([1]; dose 20.0 mg/kg): 2.85 L/h/kg
Serum Binding human (% of compound bound to serum) (human serum proteins): 88%
Stability in rat serum (% loss) [2]: 66%
